Test results as given in PMC5478727, “A Novel Small Molecule GDNF Receptor RET Agonist, BT13, Promotes Neurite Growth from Sensory Neurons in Vitro and Attenuates Experimental Neuropathy in the Rat” (Frontiers in Pharmacology, 2017).

What was measured:
[1] = system: adrenergic receptor alpha 1; assay: CEREP Alpha 1 (non-selective; antagonist radioligand); assay type: binding; settings: BT13 1 μM; Cat. No. 0008; average of duplicate
dopamine receptor D1 = dopamine receptor D1 (Homo sapiens, UniProt P21728); assay: CEREP D1 (h) (antagonist radioligand); assay type: binding; settings: BT13 1 μM; Cat. No. 0044; average of duplicate; read-out: Percentage of inhibition/potentiation from control
Chain of dopamine receptor D1 (P21728 whole entry): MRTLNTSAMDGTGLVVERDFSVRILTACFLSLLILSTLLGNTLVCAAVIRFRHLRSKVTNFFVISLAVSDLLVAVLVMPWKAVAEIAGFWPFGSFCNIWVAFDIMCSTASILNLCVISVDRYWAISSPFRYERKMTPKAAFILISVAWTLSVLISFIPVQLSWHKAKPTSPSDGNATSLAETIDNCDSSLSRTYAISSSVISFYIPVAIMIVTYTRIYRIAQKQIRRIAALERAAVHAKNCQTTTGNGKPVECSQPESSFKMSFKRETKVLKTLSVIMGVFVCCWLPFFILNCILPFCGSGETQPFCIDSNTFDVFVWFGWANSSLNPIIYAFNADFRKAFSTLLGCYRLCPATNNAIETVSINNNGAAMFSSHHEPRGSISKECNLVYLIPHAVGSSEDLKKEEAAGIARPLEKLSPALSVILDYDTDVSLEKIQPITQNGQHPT

[2] = molecular target: cholecystokinin receptor CCK2 (CCKB) (Homo sapiens, UniProt P32239); assay: CEREP CCK2 (CCKB) (h) (agonist radioligand); assay type: binding; settings: BT13 1 μM; Cat. No. 0041; average of duplicate; read-out: Percentage of inhibition/potentiation from control
CYP2C19 = molecular target: T1, CYP2C19 (Homo sapiens, UniProt P33261); assay: CYP inhibition, fluorescent assay; assay type: biochemical; settings: read-out: Inhibition of CYP isoforms (IC50), CYP2C19
T1 construct: Cyathus Exquirere (contract laboratory)
T1 sequence (P33261 whole entry, canonical isoform): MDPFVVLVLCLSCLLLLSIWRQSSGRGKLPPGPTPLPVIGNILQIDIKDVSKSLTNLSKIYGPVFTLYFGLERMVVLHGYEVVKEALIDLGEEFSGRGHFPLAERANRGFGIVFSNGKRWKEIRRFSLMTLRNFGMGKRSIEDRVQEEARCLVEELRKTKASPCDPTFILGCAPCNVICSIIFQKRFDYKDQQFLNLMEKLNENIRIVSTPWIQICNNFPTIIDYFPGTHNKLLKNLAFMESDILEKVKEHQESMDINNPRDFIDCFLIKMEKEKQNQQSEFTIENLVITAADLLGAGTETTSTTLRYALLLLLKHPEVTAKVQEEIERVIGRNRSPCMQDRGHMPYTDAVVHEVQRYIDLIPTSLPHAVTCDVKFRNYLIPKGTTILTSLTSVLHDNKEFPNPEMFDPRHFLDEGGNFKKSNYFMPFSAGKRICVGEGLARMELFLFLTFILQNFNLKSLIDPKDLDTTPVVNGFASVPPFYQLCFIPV

neurotensin receptor NT = assay: CEREP NT (non-selective; agonist radioligand); assay type: binding; settings: BT13 1 μM; Cat. No. 0465; average of duplicate
histamine receptor H2 = histamine receptor H2 (Homo sapiens, UniProt P25021); assay: CEREP H2 (h) (antagonist radioligand); assay type: binding; settings: BT13 1 μM; Cat. No. 1208; average of duplicate; read-out: Percentage of inhibition/potentiation from control
Chain of histamine receptor H2 (P25021 whole entry): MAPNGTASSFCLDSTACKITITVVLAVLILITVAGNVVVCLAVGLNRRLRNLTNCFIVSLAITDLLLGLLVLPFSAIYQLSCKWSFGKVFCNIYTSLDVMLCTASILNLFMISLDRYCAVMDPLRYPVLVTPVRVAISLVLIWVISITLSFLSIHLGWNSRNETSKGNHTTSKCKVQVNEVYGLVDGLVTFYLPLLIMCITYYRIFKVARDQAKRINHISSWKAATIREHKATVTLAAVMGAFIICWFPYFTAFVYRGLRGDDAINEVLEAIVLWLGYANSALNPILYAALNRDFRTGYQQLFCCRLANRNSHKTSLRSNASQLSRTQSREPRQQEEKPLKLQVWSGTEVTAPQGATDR

[3] = system: adult rat lumbar DRG sensory neurons; assay: Neurite outgrowth from cultured DRG neurons; assay type: cell-based; settings: NGF 10 ng/ml, BT13 100 ng/ml
Description: Cultured lumbar DRG (L3–L5) neurons were prepared using a published method (O'Mullane et al., [2013]). After plating onto poly-L-ornithine (5 μg/ml)/laminin (5 μg/ml) coated coverslips for 1 h, DRG neurons were cultured for 24–30 h in fresh Neurobasal A/B27. GFLs, BT13, NGF, and vehicle control were added at the start of this period for a 24–30 h treatment, except when preceded by pre-treatment (1 h) with inhibitors (50 μM LY294002; 2 μM SU6656, […]; Biomol Research Laboratories, Plymouth Meeting, PA, USA). DRG neurons were then fixed (4% paraformaldehyde) and processed for immunocytochemistry with 1:200 Mouse anti-β III tubulin/AlexaFluor 594 (Sigma-Aldrich Cat# T8660 RRID:AB_477590) and 1:5,000 rabbit anti-calcitonin gene-related peptide/AlexaFluor 488 (Sigma-Aldrich Cat# C8198 RRID:AB_259091) and DAPI for nuclear staining (0.5 μg/ml, Molecular Probes). Image analysis of multichannel 12 bit Zeiss .ZVI or .TIF files (captured with a Zeiss Imager.M1/MRm camera/Zen software; Carl Zeiss Australia, North Ryde, NSW, Australia) was then performed by a researcher blinded to the experimental condition. Neurite initiation was measured by a single parameter (proportion of neurons with neurites longer than the soma diameter). Neurite elongation was measured by batch processing (HCA-Vision software; CSIRO Mathematical and Information Sciences, North Ryde, NSW, Australia) to obtain four parameters—Root number: number of primary neurites; Maximum length: length of longest neurite; Branch points: number of neurite branch points; and Total length: sum of neurite lengths (Kalous and Keast, [2010]; Kalous et al., [2012]). The number of neurons of each immunocytochemical class counted on each coverslip (technical replicates) was 50 for neurite initiation and 20 for neurite elongation. A minimum of three cultures from different rats (biological replicates) were analyzed for each treatment group.

[4] = molecular target: T2, hERG (human Ether-à-go-go-related gene) (Homo sapiens, UniProt Q12809); assay: hERG competition assay with [3H]-astemizole; assay type: binding; settings: competition with [3H]-astemizole; membranes of HEK293 cells; read-out: hERG inhibition (Ki)
T2 construct: host or cells: HEK293
T2 sequence (Q12809 whole entry): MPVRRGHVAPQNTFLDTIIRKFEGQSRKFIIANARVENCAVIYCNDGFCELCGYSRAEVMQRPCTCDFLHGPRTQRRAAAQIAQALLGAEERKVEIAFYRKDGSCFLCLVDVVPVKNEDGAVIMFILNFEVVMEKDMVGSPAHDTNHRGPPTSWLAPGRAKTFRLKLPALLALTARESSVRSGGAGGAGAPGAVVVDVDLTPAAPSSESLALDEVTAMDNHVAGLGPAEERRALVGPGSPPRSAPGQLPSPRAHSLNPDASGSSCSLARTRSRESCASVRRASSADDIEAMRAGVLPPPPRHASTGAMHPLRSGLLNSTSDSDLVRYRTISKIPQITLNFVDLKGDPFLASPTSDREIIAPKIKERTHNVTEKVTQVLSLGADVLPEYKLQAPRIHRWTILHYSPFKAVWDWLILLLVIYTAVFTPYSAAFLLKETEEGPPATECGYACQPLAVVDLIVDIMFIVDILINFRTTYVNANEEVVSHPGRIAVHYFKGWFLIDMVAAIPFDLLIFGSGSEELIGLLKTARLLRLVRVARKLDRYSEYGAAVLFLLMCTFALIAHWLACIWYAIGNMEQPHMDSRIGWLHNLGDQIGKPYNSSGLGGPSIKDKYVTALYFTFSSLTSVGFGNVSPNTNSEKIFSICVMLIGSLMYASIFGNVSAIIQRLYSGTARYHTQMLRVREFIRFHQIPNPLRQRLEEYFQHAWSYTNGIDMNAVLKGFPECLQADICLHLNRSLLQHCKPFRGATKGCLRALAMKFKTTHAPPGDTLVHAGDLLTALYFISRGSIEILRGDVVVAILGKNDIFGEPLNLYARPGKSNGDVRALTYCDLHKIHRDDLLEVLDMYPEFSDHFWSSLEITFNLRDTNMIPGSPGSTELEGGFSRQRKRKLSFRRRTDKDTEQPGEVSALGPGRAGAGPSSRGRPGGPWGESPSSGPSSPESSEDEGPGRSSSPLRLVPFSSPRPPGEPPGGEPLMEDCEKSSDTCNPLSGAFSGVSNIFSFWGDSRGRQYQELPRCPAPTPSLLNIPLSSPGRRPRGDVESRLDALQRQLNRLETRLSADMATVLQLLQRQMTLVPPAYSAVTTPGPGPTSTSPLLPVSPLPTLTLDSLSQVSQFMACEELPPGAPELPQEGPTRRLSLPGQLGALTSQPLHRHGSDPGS

CYP3A4 = molecular target: T3, CYP3A4 (Homo sapiens, UniProt P08684); assay: CYP inhibition, fluorescent assay; assay type: biochemical; settings: read-out: Inhibition of CYP isoforms (IC50), CYP3A4
T3 construct: Cyathus Exquirere (contract laboratory)
T3 sequence (P08684 whole entry, canonical isoform): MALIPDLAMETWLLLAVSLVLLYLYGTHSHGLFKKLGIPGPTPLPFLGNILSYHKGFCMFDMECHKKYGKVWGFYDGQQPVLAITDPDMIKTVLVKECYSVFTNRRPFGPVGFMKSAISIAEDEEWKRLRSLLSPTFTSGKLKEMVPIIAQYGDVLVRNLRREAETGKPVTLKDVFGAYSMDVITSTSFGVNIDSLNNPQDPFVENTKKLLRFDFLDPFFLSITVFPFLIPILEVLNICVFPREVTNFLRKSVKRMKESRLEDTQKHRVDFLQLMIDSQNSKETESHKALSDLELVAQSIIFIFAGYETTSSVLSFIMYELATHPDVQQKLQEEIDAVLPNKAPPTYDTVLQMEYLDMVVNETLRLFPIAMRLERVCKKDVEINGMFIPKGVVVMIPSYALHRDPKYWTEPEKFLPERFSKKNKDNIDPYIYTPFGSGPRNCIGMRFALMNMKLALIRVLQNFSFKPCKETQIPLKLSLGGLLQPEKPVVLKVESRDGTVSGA

[5] = molecular target: T4, opioid receptor delta (DOP) (Mus musculus, UniProt P32300); assay: CEREP Delta (DOP) (agonist effect); assay type: cell-based; settings: BT13 1 μM, Cat. No. 2568, average of duplicate, read-out: Percentage of inhibition/potentiation from control
T4 construct: purchased CEREP (contract assay) 2568

GFRα1/RET = molecular target: T5, GFRα1/RET (Homo sapiens, UniProt P07949); assay: Luciferase reporter-gene assay (PathDetect Elk-1), GFRα1/RET reporter cells; assay type: cell-based; settings: GFRα1/RET reporter cell line
T5 construct: full-length human RET (long isoform) in pCR3.1; expressed in transfected cells; host or cells: MG87 murine fibroblasts (MG87RET + PathDetect Elk-1 + GFRα1)
T5 sequence (P07949 29-1114): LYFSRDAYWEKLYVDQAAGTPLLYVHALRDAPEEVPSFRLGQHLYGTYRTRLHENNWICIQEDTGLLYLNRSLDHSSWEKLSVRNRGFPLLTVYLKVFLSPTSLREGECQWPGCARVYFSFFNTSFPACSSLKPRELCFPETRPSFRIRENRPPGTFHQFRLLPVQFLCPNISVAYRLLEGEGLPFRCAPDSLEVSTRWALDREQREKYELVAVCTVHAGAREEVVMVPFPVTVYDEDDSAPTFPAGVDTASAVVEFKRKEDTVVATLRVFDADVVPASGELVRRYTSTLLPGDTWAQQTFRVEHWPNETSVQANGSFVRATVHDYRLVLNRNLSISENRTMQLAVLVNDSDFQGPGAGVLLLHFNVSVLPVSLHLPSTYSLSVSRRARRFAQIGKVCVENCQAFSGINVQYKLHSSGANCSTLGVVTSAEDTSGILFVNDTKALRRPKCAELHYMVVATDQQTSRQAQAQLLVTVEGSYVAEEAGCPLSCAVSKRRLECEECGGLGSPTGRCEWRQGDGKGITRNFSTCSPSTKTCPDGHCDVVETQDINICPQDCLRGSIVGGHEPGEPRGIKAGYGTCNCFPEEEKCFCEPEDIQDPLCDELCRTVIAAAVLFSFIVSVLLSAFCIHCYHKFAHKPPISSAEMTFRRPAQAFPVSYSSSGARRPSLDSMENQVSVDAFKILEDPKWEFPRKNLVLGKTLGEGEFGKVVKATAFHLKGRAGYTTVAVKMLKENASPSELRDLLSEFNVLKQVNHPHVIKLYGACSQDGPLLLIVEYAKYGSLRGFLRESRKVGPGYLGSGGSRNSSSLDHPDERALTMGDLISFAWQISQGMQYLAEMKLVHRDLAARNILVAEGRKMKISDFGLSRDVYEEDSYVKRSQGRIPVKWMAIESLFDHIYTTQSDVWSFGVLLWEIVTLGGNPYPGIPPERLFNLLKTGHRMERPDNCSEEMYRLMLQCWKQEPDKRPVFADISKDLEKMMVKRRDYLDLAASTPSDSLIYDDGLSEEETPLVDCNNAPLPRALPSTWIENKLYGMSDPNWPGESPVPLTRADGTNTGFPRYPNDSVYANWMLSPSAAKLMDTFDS

[6] = system: Akt and Erk phosphorylation in parental MG87 cells; assay: Erk1/2 and Akt phosphorylation assay in parental MG87 cells; assay type: cell-based, murine; settings: BT13 10–100 μM
RET mRNA in DRGs = assay: qPCR of RET mRNA in DRGs of animals with SNL; assay type: in vivo, rat; settings: SNL rats; BT13-treated vs vehicle-treated
adenosine receptor A2B = molecular target: T6, adenosine receptor A2B (Homo sapiens, UniProt P29275); assay: CEREP A2B (h) (antagonist radioligand); assay type: binding; settings: BT13 1 μM; Cat. No. 0005; average of duplicate; read-out: Percentage of inhibition/potentiation from control
T6 construct: purchased CEREP (contract assay) Cat# 0005
T6 sequence (P29275 whole entry): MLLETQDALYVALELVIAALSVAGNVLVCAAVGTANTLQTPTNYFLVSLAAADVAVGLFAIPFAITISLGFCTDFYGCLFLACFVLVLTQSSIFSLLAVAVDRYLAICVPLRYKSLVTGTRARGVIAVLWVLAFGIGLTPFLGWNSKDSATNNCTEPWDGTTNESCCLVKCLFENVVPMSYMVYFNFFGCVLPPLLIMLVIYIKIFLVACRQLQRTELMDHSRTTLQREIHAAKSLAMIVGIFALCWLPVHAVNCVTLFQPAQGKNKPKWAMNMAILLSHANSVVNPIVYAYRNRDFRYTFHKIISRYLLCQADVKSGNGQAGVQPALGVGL

[7] = Plasma stability, human plasma; assay type: in vitro ADME; settings: read-out: Plasma stability (% remaining after 1 h)
[8] = Pharmacokinetics after intravenous injection; assay type: in vivo; settings: rat, 10 mg/kg intravenously
5-HT transporter = 5-HT transporter (Homo sapiens, UniProt P31645); assay: biochemical; settings: read-out: Percentage of inhibition/potentiation from control
Chain of 5-HT transporter (P31645 whole entry): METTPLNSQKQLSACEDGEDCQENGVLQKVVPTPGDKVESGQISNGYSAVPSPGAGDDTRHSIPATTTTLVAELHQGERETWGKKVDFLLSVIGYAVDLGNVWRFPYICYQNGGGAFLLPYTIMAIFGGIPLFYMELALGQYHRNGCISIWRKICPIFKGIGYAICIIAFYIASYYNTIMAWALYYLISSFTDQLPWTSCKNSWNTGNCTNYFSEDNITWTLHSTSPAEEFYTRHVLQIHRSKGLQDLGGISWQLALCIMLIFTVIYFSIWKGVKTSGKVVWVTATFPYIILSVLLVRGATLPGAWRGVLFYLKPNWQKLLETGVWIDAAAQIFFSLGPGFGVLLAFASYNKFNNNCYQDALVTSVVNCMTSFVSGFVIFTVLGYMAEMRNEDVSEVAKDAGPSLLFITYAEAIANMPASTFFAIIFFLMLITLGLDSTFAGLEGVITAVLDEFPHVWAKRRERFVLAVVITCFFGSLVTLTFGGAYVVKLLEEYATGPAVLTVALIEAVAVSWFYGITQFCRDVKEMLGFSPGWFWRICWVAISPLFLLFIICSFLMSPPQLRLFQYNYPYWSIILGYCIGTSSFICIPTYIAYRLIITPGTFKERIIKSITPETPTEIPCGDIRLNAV

RET = molecular target: T7, RET (Homo sapiens, UniProt P07949); assay: RET phosphorylation assay in MG87RET fibroblasts (GFRα3/RET and GFP/RET); assay type: cell-based, murine; settings: 25–50 μM; in the presence and absence of GFRα3 co-receptor
T7 construct: full-length human RET (long isoform) in pCR3.1; expressed in transfected cells; host or cells: MG87RET murine fibroblasts
T7 sequence (P07949 29-1114): as the sequence (P07949 29-1114) above

[9] = CGRP-positive neurons, vs control

Compound: CCN(CC)S(=O)(=O)c1ccc(OC)c(N2CCN(C(=O)c3ccc(F)cc3C(F)(F)F)CC2)c1 [BT13]
- Percentage of inhibition/potentiation from control [1]: 2%
- inhibition at 1 µM (dopamine receptor D1): -17%
- Cytotoxicity to human hepatoma cells (HepG2; LD50) (HepG2 cells): 90.4 ± 8.5 µM
- inhibition at 1 µM [2]: 1%
- IC50 (CYP2C19): > 100 µM
- Percentage of inhibition/potentiation from control (neurotensin receptor NT): −6%
- inhibition at 1 µM (histamine receptor H2): 9%
- neurite initiation or extension ([3]; CGRP-negative neurons, ARTN 30 ng/ml): no effect
- neurite initiation ([3]; CGRP-positive neurons, ARTN 30 ng/ml, overnight): no effect
- neurite elongation, branch points, mean difference [3, 9]: 22 ± 5
- neurite elongation, maximum length, mean difference [3, 9]: 91 ± 13 μm
- neurite elongation, total length, mean difference [3, 9]: 797 ± 207 μm
- proportion of DRG neurons that expressed CGRP in culture ([3]; ARTN 30 ng/ml): did not alter
- Ki [4]: > 30 µM
- IC50 (CYP3A4): 3.2 ± 0.42 µM
- inhibition at 1 µM [5]: -5.2%
- efficacy, fold induction of luciferase above baseline (GFRα1/RET): 11.6 fold
- EC50 (GFRα1/RET; 0.1–50 μM, read-out: EC50, luciferase activation): 17.4 µM
- Akt and Erk phosphorylation [6]: no Akt or Erk phosphorylation was observed
- mRNA level of RET in DRGs (RET mRNA in DRGs): no difference
- inhibition at 1 µM (adenosine receptor A2B): -14%
- remaining at 1 h [7]: 97 ± 0.1%
- Kp ([8]; male, Sprague Dawley, iv, plasma and brain samples 1, 3 and 6 h, read-out: BBB penetration): 0.55 to 0.68
- clearance ([8]; male, Sprague Dawley, plasma, iv): 78.3 mL/min
- Vd ([8]; male, Sprague Dawley, plasma, iv, one-compartment model): 23.6 L/kg
- half-life ([8]; male, Sprague Dawley, plasma, iv, one-compartment model, read-out: t1/2 (half-life in the blood) (converted)): 3.47 h
- BBB penetration ([8]; plasma and brain samples 1, 3 and 6 h, 10 mg/kg): 55–68%
- inhibition at 1 µM (5-HT transporter): 0%
- RET phosphorylation (170 kD mature glycosylated form), Western blotting (RET): elicited phosphorylation
